Values joined by “and” are separate entries in the source; they are usually repeats but may differ in a detail not shown here. Equal values may be shown once.
Columns and labels:
[1] = Whole blood stability assay; assay type: in vitro ADME; conditions: pooled fresh human whole blood, 37 degrees C., prodrug 50 nM; read-out: t1/2 at 37 degrees C. in human whole blood
Method: Naltrexone prodrug stability was assessed using freshly collected whole blood (within 24-hr collection) from pooled human (n=3) donors. The incubation mixtures were prepared by spiking the prodrugs into pre-warmed (37 degrees C.) fresh whole blood to a final concentration of 50 nM. After gentle mixing, aliquots of incubation mixtures were immediately transferred into four different 96-deep well plates. One plate was used for each time point. The plates were incubated at 37 degrees C. at a shaking speed of 100 rpm. At time points 15, 30, 60 and 120 minutes, the reaction was quenched by addition of a mixture of water and acetonitrile containing the internal standard (naltrexone-D3). Time point 0 minutes was prepared separately by spiking the prodrugs into a quenched whole blood to obtain a final concentration of 50 nM. All samples were vortexed at a low speed for 15 min and centrifuged at 3900 rpm for 15 min. Supernatants were transferred into 96-well plates for LC-MS/MS analysis to monitor the depletion of the prodrugs and the formation of naltrexone.
The amount of remaining prodrug and released naltrexone for each sample was quantitated against the calibration curves prepared with the whole blood. The human whole blood was purchased from BioreclamationIVT (Westbury, N.Y., USA). Naltrexone-D3 was purchased from Cerilliant® (Round Rock, Tex., USA). […] Where multiple runs have been completed, average values are reported.

[2] = Pharmacokinetic evaluation of the release of naltrexone from Compound 4 in rats following a single intramuscular injection; assay type: in vivo, Sprague-Dawley rats; conditions: for plasma concentrations of parent Compound 4 and the resultant intermediate, in words: over 84 days after single IM dose of Compound 4, limit of quantitation 0.5 ng/mL
Method: Five male Sprague-Dawley rats were allowed to acclimate to the test facility for at least 3 days prior to study start. For dose administration of Compound 4, the rats were lightly anesthetized with isofluorane, the hind leg shaved and dosed intramuscularly with the formulation using a 20 G needle. […] Serial whole blood samples were collected via sublingual route (˜150 μL) at 1, 7, and 24 hours post dose, and at 2, 4, 7, 10, 14, 21, 24, 28, 35, 42, 49, 56, 63, 70, 77, and 84 days post dose.
Blood samples were placed into K2EDTA blood collection tubes. After collection, blood samples were maintained chilled (on wet ice) and centrifuged (11,500 rpm for 2 minutes at 5 degrees C.) within 30 minutes to obtain plasma. Plasma was transferred into a single vial, 1.5 mL screw cap micro-centrifuge tube with inserts and stored at −80 degrees C. until analysis.
The formulation dosed was a crystalline suspension of Compound 4 (48.3 milligrams of Compound 4 dosed per animal), wherein the crystalline test article was characterized with a particle size distribution of Dv10=4.0 μm, Dv50=6.4 μm, and Dv90=9.6 μm (as measured via laser diffraction). The formulation was prepared the day before dosing. Details of the formulation dosed are described in Table D below.
Results of the above intramuscular rat study of Compound 4 are shown in Tables E and F. In particular, Table E reports the average blood plasma levels of naltrexone in rat (n=5) over 84 days following intramuscular administration.

`O=C(CCc1ccc(CCC(=O)Oc2ccc3c4c2O[C@H]2C(=O)CC[C@@]5(O)[C@@H](C3)N(CC3CC3)CC[C@]425)s1)Oc1ccc2c3c1O[C@H]1C(=O)CC[C@@]4(O)[C@@H](C2)N(CC2CC2)CC[C@]314` [Compound 1, bis((4R,4aS,7aR,12bS)-3-(cyclopropylmethyl)-4a-hydroxy-7-oxo-2,3,4,4a,5,6,7,7a-octahydro-1H-4,12-methanobenzofuro[3,2-e]isoquinolin-9-yl) 3,3′-(thiophene-2,5-diyl)dipropionate] showed a half-life at 50 nM [1] of 7.2 min.

In the case of `O=C(Cc1cscc1CC(=O)Oc1ccc2c3c1O[C@H]1C(=O)CC[C@@]4(O)[C@@H](C2)N(CC2CC2)CC[C@]314)Oc1ccc2c3c1O[C@H]1C(=O)CC[C@@]4(O)[C@@H](C2)N(CC2CC2)CC[C@]314` [Compound 2, bis((4R,4aS,7aR,12bS)-3-(cyclopropylmethyl)-4a-hydroxy-7-oxo-2,3,4,4a,5,6,7,7a-octahydro-1H-4,12-methanobenzofuro[3,2-e]isoquinolin-9-yl) 2,2′-(thiophene-3,4-diyl)diacetate], the half-life at 50 nM [1] is reported as less than 5 min.

With `O=C(Cc1sc(CC(=O)Oc2ccc3c4c2O[C@H]2C(=O)CC[C@@]5(O)[C@@H](C3)N(CC3CC3)CC[C@]425)c2ccccc12)Oc1ccc2c3c1O[C@H]1C(=O)CC[C@@]4(O)[C@@H](C2)N(CC2CC2)CC[C@]314` [Compound 3, bis((4R,4aS,7aR,12bS)-3-(cyclopropylmethyl)-4a-hydroxy-7-oxo-2,3,4,4a,5,6,7,7a-octahydro-1H-4,12-methanobenzofuro[3,2-e]isoquinolin-9-yl) 2,2′-(benzo[c]thiophene-1,3-diyl)diacetate] the half-life at 50 nM [1] was 41.2 min.

`O=C(Cc1ccc(CC(=O)Oc2ccc3c4c2O[C@H]2C(=O)CC[C@@]5(O)[C@@H](C3)N(CC3CC3)CC[C@]425)s1)Oc1ccc2c3c1O[C@H]1C(=O)CC[C@@]4(O)[C@@H](C2)N(CC2CC2)CC[C@]314` [Compound 4, bis((4R,4aS,7aR,12bS)-3-(cyclopropylmethyl)-4a-hydroxy-7-oxo-2,3,4,4a,5,6,7,7a-octahydro-1H-4,12-methanobenzofuro[3,2-e]isoquinolin-9-yl) 2,2′-(thiophene-2,5-diyl)diacetate] showed a concentration at 1 day ([2]; male, Sprague-Dawley, rat, plasma, intramuscular, 48.3 mg per animal, rat plasma, individual animals Rat 1-5, day 1 after single IM dose of Compound 4, read-out: Compound 4 conc.) of less than 0.5 ng/mL, a concentration at 49 day ([2]; male, Sprague-Dawley, rat, plasma, intramuscular, 48.3 mg per animal, rat plasma, individual animals Rat 1-5, day 49 after single IM dose of Compound 4, read-out: Compound 4 conc.) of less than 0.5 ng/mL and a concentration at 56 day ([2]; male, Sprague-Dawley, rat, plasma, intramuscular, 48.3 mg per animal, rat plasma, individual animals Rat 1-5, day 56 after single IM dose of Compound 4, read-out: Compound 4 conc.) of less than 0.5 ng/mL. It also gave a concentration at 63 day ([2]; male, Sprague-Dawley, rat, plasma, intramuscular, 48.3 mg per animal, rat plasma, individual animals Rat 1-5, day 63 after single IM dose of Compound 4, read-out: Compound 4 conc.) of less than 0.5 ng/mL, a concentration at 70 day ([2]; male, Sprague-Dawley, rat, plasma, intramuscular, 48.3 mg per animal, rat plasma, individual animals Rat 1-5, day 70 after single IM dose of Compound 4, read-out: Compound 4 conc.) of less than 0.5 ng/mL and a concentration at 77 day ([2]; male, Sprague-Dawley, rat, plasma, intramuscular, 48.3 mg per animal, rat plasma, individual animals Rat 1-5, day 77 after single IM dose of Compound 4, read-out: Compound 4 conc.) of less than 0.5 ng/mL. For the same molecule, the concentration at 84 day ([2]; male, Sprague-Dawley, rat, plasma, intramuscular, 48.3 mg per animal, rat plasma, individual animals Rat 1-5, day 84 after single IM dose of Compound 4, read-out: Compound 4 conc.) was less than 0.5 ng/mL, the concentration at 2 day ([2]; male, Sprague-Dawley, rat, plasma, intramuscular, 48.3 mg/animal, rat plasma, individual animals Rat 1-5, day 2 after single IM dose of Compound 4, read-out: Compound 4 conc.) was less than 0.5 ng/mL and the concentration at 4 day ([2]; male, Sprague-Dawley, rat, plasma, intramuscular, 48.3 mg/animal, rat plasma, individual animals Rat 1-5, day 4 after single IM dose of Compound 4, read-out: Compound 4 conc.) was less than 0.5 ng/mL. It also gave a concentration at 7 day ([2]; male, Sprague-Dawley, rat, plasma, intramuscular, 48.3 mg/animal, rat plasma, individual animals Rat 1-5, day 7 after single IM dose of Compound 4, read-out: Compound 4 conc.) of less than 0.5 ng/mL, a concentration at 10 day ([2]; male, Sprague-Dawley, rat, plasma, intramuscular, 48.3 mg/animal, rat plasma, individual animals Rat 1-5, day 10 after single IM dose of Compound 4, read-out: Compound 4 conc.) of less than 0.5 ng/mL and a concentration at 14 day ([2]; male, Sprague-Dawley, rat, plasma, intramuscular, 48.3 mg/animal, rat plasma, individual animals Rat 1-5, day 14 after single IM dose of Compound 4, read-out: Compound 4 conc.) of less than 0.5 ng/mL. It also gave a concentration at 21 day ([2]; male, Sprague-Dawley, rat, plasma, intramuscular, 48.3 mg/animal, rat plasma, individual animals Rat 1-5, day 21 after single IM dose of Compound 4, read-out: Compound 4 conc.) of less than 0.5 ng/mL, a concentration at 24 day ([2]; male, Sprague-Dawley, rat, plasma, intramuscular, 48.3 mg/animal, rat plasma, individual animals Rat 1-5, day 24 after single IM dose of Compound 4, read-out: Compound 4 conc.) of less than 0.5 ng/mL and a concentration at 28 day ([2]; male, Sprague-Dawley, rat, plasma, intramuscular, 48.3 mg/animal, rat plasma, individual animals Rat 1-5, day 28 after single IM dose of Compound 4, read-out: Compound 4 conc.) of less than 0.5 ng/mL. The concentration at 35 day ([2]; male, Sprague-Dawley, rat, plasma, intramuscular, 48.3 mg/animal, rat plasma, individual animals Rat 1-5, day 35 after single IM dose of Compound 4, read-out: Compound 4 conc.) was less than 0.5 ng/mL, the concentration at 42 day ([2]; male, Sprague-Dawley, rat, plasma, intramuscular, 48.3 mg/animal, rat plasma, individual animals Rat 1-5, day 42 after single IM dose of Compound 4, read-out: Compound 4 conc.) was less than 0.5 ng/mL and the Naltrexone conc. ([2]; rat plasma, average, day 84 after single IM dose of Compound 4 crystalline suspension (48.3 mg/animal)) was “BLQ* (BLQ (Below Limit of Quantitation) means <0.5 ng/mL)”. For the same molecule, the “Compound 4 conc.” value ([2]; rat plasma, individual animals Rat 1-5, day 0.04 (1 hr) after single IM dose of Compound 4) was <0.5 ng/mL (4×) and 2.11 ng/mL, the “Compound 4 conc.” value ([2]; rat plasma, individual animals Rat 1-5, day 0.3 (7 hr) after single IM dose of Compound 4) was 1.22 ng/mL and <0.5 ng/mL (3×) and 1.05 ng/mL and the “Compound 4 conc.” value ([2]; rat plasma, individual animals Rat 1-5, day 1 after single IM dose of Compound 4) was <0.5 ng/mL (3×) and 0.501 ng/mL. The “Compound 4 conc.” value ([2]; rat plasma, individual animals Rat 1-5, day 2 after single IM dose of Compound 4) was less than 0.5 ng/mL, the “Compound 4 conc.” value ([2]; rat plasma, individual animals Rat 1-5, day 4 after single IM dose of Compound 4) was less than 0.5 ng/mL and the “Compound 4 conc.” value ([2]; rat plasma, individual animals Rat 1-5, day 7 after single IM dose of Compound 4) was less than 0.5 ng/mL. The “Compound 4 conc.” value ([2]; rat plasma, individual animals Rat 1-5, day 10 after single IM dose of Compound 4) was less than 0.5 ng/mL, the “Compound 4 conc.” value ([2]; rat plasma, individual animals Rat 1-5, day 14 after single IM dose of Compound 4) was less than 0.5 ng/mL and the “Compound 4 conc.” value ([2]; rat plasma, individual animals Rat 1-5, day 21 after single IM dose of Compound 4) was less than 0.5 ng/mL. The “Compound 4 conc.” value ([2]; rat plasma, individual animals Rat 1-5, day 24 after single IM dose of Compound 4) was less than 0.5 ng/mL, the “Compound 4 conc.” value ([2]; rat plasma, individual animals Rat 1-5, day 28 after single IM dose of Compound 4) was less than 0.5 ng/mL and the “Compound 4 conc.” value ([2]; rat plasma, individual animals Rat 1-5, day 35 after single IM dose of Compound 4) was less than 0.5 ng/mL. The “Compound 4 conc.” value ([2]; rat plasma, individual animals Rat 1-5, day 42 after single IM dose of Compound 4) was less than 0.5 ng/mL, the “Compound 4 conc.” value ([2]; rat plasma, individual animals Rat 1-5, day 49 after single IM dose of Compound 4) was less than 0.5 ng/mL and the “Compound 4 conc.” value ([2]; rat plasma, individual animals Rat 1-5, day 56 after single IM dose of Compound 4) was less than 0.5 ng/mL. For the same molecule, the “Compound 4 conc.” value ([2]; rat plasma, individual animals Rat 1-5, day 63 after single IM dose of Compound 4) was less than 0.5 ng/mL, the “Compound 4 conc.” value ([2]; rat plasma, individual animals Rat 1-5, day 70 after single IM dose of Compound 4) was less than 0.5 ng/mL and the “Compound 4 conc.” value ([2]; rat plasma, individual animals Rat 1-5, day 77 after single IM dose of Compound 4) was less than 0.5 ng/mL. For the same molecule, the “Compound 4 conc.” value ([2]; rat plasma, individual animals Rat 1-5, day 84 after single IM dose of Compound 4) was less than 0.5 ng/mL, the “plasma concentrations of parent Compound 4 and the resultant intermediate, in words” value ([2]; rat) was “generally low to not measurable” and the half-life at 50 nM [1] was 4.19 min.

With `O=C(O)Cc1ccc(CC(=O)Oc2ccc3c4c2O[C@H]2C(=O)CC[C@@]5(O)[C@@H](C3)N(CC3CC3)CC[C@]425)s1` [Compound 4i, 2-(5-(2-(((4R,4aS,7aR,12bS)-3-(cyclopropylmethyl)-4a-hydroxy-7-oxo-2,3,4,4a,5,6,7,7a-octahydro-1H-4,12-methanobenzofuro[3,2-e]isoquinolin-9-yl)oxy)-2-oxoethyl)thiophen-2-yl)acetic acid] the “plasma concentrations of parent Compound 4 and the resultant intermediate, in words” value ([2]; rat) was “generally low to not measurable”.

In the case of `O=C(Oc1ccc2c3c1O[C@H]1C(=O)CC[C@@]4(O)[C@@H](C2)N(CC2CC2)CC[C@]314)c1ccc(C(=O)Oc2ccc3c4c2O[C@H]2C(=O)CC[C@@]5(O)[C@@H](C3)N(CC3CC3)CC[C@]425)cc1` [Reference Compound A, NTX-3-terephthaloyl-NTX, reference compound], the half-life at 50 nM [1] is reported as 54.7 min.

Source: patent US10975099B2, “Thiophene compounds for long-acting injectable compositions and related methods” (Alkermes Pharma Ireland Limited, priority 2018, dated 2021)
